Counter-ions that a name gives are not always drawn.

For one assay, the target named is T1, Cdc7/Dbf4 complex (Homo sapiens, UniProt O00311).
T1 construct: Full-length Cdc7 co-expressed with full-length Dbf4; purchased Carna Biosciences (Kobe)
T1 sequence (O00311 whole entry): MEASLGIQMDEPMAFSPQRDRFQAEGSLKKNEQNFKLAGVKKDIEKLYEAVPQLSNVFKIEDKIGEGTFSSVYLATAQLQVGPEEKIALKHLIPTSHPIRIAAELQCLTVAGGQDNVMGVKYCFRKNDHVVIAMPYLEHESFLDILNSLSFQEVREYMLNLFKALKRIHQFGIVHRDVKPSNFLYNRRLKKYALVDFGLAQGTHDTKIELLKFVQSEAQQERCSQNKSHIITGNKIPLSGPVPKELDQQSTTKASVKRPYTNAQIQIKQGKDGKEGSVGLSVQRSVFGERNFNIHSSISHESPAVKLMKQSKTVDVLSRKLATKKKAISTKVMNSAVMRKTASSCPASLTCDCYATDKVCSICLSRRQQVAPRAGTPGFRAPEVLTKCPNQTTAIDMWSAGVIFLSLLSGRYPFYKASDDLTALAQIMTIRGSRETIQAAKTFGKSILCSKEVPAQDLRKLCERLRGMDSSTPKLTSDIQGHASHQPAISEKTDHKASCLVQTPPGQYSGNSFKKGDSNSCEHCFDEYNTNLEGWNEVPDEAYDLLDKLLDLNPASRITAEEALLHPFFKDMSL
T1 sequence (Q9UBU7 whole entry partner): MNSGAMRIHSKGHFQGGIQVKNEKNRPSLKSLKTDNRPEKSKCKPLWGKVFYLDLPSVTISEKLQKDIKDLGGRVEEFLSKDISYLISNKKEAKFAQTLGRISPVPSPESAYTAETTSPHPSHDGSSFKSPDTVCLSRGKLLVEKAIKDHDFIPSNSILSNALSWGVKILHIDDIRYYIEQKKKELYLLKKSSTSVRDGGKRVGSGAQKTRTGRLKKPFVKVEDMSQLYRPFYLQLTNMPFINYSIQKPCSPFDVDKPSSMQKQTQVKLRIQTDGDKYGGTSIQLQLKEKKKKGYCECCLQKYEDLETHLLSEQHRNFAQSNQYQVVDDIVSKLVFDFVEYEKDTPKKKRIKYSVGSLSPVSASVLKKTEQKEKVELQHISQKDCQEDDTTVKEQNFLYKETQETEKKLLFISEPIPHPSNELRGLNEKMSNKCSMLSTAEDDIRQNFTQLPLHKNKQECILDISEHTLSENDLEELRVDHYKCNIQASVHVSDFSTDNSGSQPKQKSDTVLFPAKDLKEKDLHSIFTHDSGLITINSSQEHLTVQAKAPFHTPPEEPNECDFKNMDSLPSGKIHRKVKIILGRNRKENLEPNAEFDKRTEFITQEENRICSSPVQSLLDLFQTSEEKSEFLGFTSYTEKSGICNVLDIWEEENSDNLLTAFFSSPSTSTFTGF
Description: Measurement of Cdc7 kinase inhibitory activity (Transcreener ADP HTRF assay). It is filed as biochemical. Conditions: read-out: inhibitory rate (%) at 1 μM. As for the experimental part:
Full-length Cdc7 co-expressed with full-length Dbf4 was purchased from Carna Biosciences (Kobe). The enzyme activity of Cdc7/Dbf4 complex was detected by homogeneous time-resolved fluorescence method Transcreener ADP assay (Cisbio Inc., MA, U.S.A.). […] Free ADP produced by ATP hydrolysis was detected by Eu^3+-Cryptate-labeled anti-ADP monoclonal antibody competitively with d2-labeled ADP, and the production amount thereof was measured. The obtained time-resolved fluorescence resonance energy transfer signal was measured by EnVision (Perkin Elmer Inc., MA, U.S.A.). The inhibitory rate (%) of the test compound to Cdc7 was calculated by the following formula. Inhibitory rate(%)=(1−(count of test compound-blank)[…](control-blank))×100
The count of the Cdc7/Dbf4 reaction mixture under compound-free conditions was taken as the control, and that under compound-free and Cdc7/Dbf4-free conditions was taken as the blank.
As for `Cc1[nH]ncc1-c1cc2nc([C@@H]3CCC(C)(C)N3)[nH]c(=O)c2s1` [Example 76, 2-[(2S)-5,5-dimethylpyrrolidin-2-yl]-6-(5-methyl-1H-pyrazol-4-yl)thieno[3,2-d]pyrimidin-4 (3H)-one], the inhibition at 1 µM was 106%.

`Cc1[nH]ncc1-c1cc2nc([C@@H]3CCN3)[nH]c(=O)c2s1` [Example 77, 2-[(2S)-azetidin-2-yl]-6-(5-methyl-1H-pyrazol-4-yl)thieno[3,2-d]pyrimidin-4 (3H)-one]: the inhibition at 1 µM turned out to be 108%.

Consider `Cc1[nH]ncc1-c1cc2nc(C3CCCCCN3)[nH]c(=O)c2s1` (stereo not shown) [Example 79, 2-(azepan-2-yl)-6-(5-methyl-1H-pyrazol-4-yl)thieno[3,2-d]pyrimidin-4 (3H)-one], for which the inhibition at 1 µM is 93.3%.

On to `Cc1[nH]ncc1-c1cc2nc([C@@H]3CCCN3C)[nH]c(=O)c2s1` [Example 88, 6-(5-methyl-1H-pyrazol-4-yl)-2-[(2S)-1-methylpyrrolidin-2-yl]thieno[3,2-d]pyrimidin-4 (3H)-one dihydrochloride], for which the inhibition at 1 µM came out at 101%.

As for `Cc1[nH]ncc1-c1cc2nc([C@@H]3C[C@H](C)CN3)[nH]c(=O)c2s1` [Example 92, 6-(5-methyl-1H-pyrazol-4-yl)-2-[(2S,4S)-4-methylpyrrolidin-2-yl]thieno[3,2-d]pyrimidin-4 (3H)-one dihydrochloride], the inhibition at 1 µM amounted to 108%.

For `Cc1[nH]ncc1-c1cc2nc([C@H]3CCCCCN3)[nH]c(=O)c2s1` [Example 101, 2-[(2R)-azepan-2-yl]-6-(5-methyl-1H-pyrazol-4-yl)thieno[3,2-d]pyrimidin-4 (3H)-one], the inhibition at 1 µM was found to be 96.2%.

As to `Cc1[nH]ncc1-c1cc2nc([C@@H]3CCCCCN3)[nH]c(=O)c2s1` [Example 102, 2-[(2S)-azepan-2-yl]-6-(5-methyl-1H-pyrazol-4-yl)thieno[3,2-d]pyrimidin-4 (3H)-one], the inhibition at 1 µM was 95.9%.

As for `Cc1[nH]ncc1-c1cc2nc([C@H]3NCC[C@@H]3C)[nH]c(=O)c2s1` [Example 140, 6-(5-methyl-1H-pyrazol-4-yl)-2-[(2S,3S)-3-methylpyrrolidin-2-yl]thieno[3,2-d]pyrimidin-4 (3H)-one dihydrochloride], the inhibition at 1 µM came out at 100%.

Staying with this assay, now noted: read-out: inhibitory rate (%) at 1 μM, test compound 1 μM; Cdc7/Dbf4, 1.0 μm ATP, 10 μg/ml MCM2.
Regarding `Cc1[nH]ncc1-c1cc2nc([C@@H]3CCCN3)[nH]c(=O)c2s1` [Example 11, 6-(5-methyl-1H-pyrazol-4-yl)-2-[(2S)-pyrrolidin-2-yl]thieno[3,2-d]pyrimidin-4 (3H)-one monotrifluoroacetate], the inhibition at 1 µM stood at 103%.

In the case of `Cc1[nH]ncc1-c1cc2nc(C3CCCCN3)[nH]c(=O)c2s1` (stereo not shown) [Example 71, 6-(5-methyl-1H-pyrazol-4-yl)-2-(piperidin-2-yl)thieno[3,2-d]pyrimidin-4 (3H)-one dihydrochloride], the inhibition at 1 µM was 109%.

Consider `Cc1[nH]ncc1-c1cc2nc(C3(C)CCCN3)[nH]c(=O)c2s1` (stereo not shown) [Example 82, 6-(5-methyl-1H-pyrazol-4-yl)-2-(2-methylpyrrolidin-2-yl)thieno[3,2-d]pyrimidin-4 (3H)-one dihydrochloride], for which the inhibition at 1 µM came out at 105%.

In the case of `Cc1[nH]ncc1-c1cc2nc([C@H]3CCCCN3)[nH]c(=O)c2s1` [Example 85, 6-(5-methyl-1H-pyrazol-4-yl)-2-[(2R)-piperidin-2-yl]thieno[3,2-d]pyrimidin-4 (3H)-one dihydrochloride], the inhibition at 1 µM is 103%.

Consider `Cc1[nH]ncc1-c1cc2nc([C@]3(C)CCCN3)[nH]c(=O)c2s1` [Example 103, 6-(5-methyl-1H-pyrazol-4-yl)-2-[(2S)-2-methylpyrrolidin-2-yl]thieno[3,2-d]pyrimidin-4 (3H)-one dihydrochloride], for which the inhibition at 1 µM was found to be 96.7%.

Regarding `Cc1[nH]ncc1-c1cc2nc(C3CC=CCN3)[nH]c(=O)c2s1` (stereo not shown) [Example 136, 6-(5-methyl-1H-pyrazol-4-yl)-2-(1,2,3,6-tetrahydropyridin-2-yl)thieno[3,2-d]pyrimidin-4 (3H)-one dihydrochloride], the inhibition at 1 µM was 91%.

The assay is the same for the next values; noted with them: test compound 1 μM; Cdc7/Dbf4, 1.0 μm ATP, 10 μg/ml MCM2; read-out: inhibitory rate (%) at 1 μM.
For the compound `Cc1[nH]ncc1-c1cc2nc([C@H]3NC[C@H]4C[C@H]43)[nH]c(=O)c2s1` (relative stereo) [Example 87, 2-[(1R*,2S*,5S*)-3-azabicyclo[3.1.0]hex-2-yl]-6-(5-methyl-1H-pyrazol-4-yl)thieno[3,2-d]pyrimidin-4 (3H)-one dihydrochloride], the inhibition at 1 µM stood at 107%.

In the case of `Cc1[nH]ncc1-c1cc2nc([C@H]3NC[C@@H]4C[C@@H]43)[nH]c(=O)c2s1` (relative stereo) [Example 110, 2-[(1S*,2S*,5R*)-3-azabicyclo[3.1.0]hex-2-yl]-6-(5-methyl-1H-pyrazol-4-yl)thieno[3,2-d]pyrimidin-4 (3H)-one dihydrochloride], the inhibition at 1 µM turned out to be 100%.

Consider `Cc1[nH]ncc1-c1cc2nc([C@H]3CCCC[C@@H]3N)[nH]c(=O)c2s1` (relative stereo) [Example 129, 2-[(1R*,2R*)-2-aminocyclohexyl]-6-(5-methyl-1H-pyrazol-4-yl)thieno[3,2-d]pyrimidin-4 (3H)-one dihydrochloride], for which the inhibition at 1 µM stood at 108%.

With `Cc1[nH]ncc1-c1cc2nc(C3CCCC3N)[nH]c(=O)c2s1` (single isomer, unassigned) [Example 137, 2-(2-aminocyclopentyl)-6-(5-methyl-1H-pyrazol-4-yl)thieno[3,2-d]pyrimidin-4 (3H)-one dihydrochloride], the inhibition at 1 µM is 97%.

As to `Cc1[nH]ncc1-c1cc2nc(-c3ccccc3Cl)[nH]c(=O)c2s1` [Example 1, 2-(2-chlorophenyl)-6-(5-methyl-1H-pyrazol-4-yl)thieno[3,2-d]pyrimidin-4 (3H)-one], the inhibition at 1 µM turned out to be 97%.

For `Cc1[nH]ncc1-c1cc2nc(CN3CC[C@H](F)C3)[nH]c(=O)c2s1` [Example 4, 2-{[(3S)-3-fluoropyrrolidin-1-yl]methyl}-6-(5-methyl-1H-pyrazol-4-yl)thieno[3,2-d]pyrimidin-4 (3H)-one], the inhibition at 1 µM worked out at 102%.

Consider `Cc1[nH]ncc1-c1cc2nc([C@@H]3C[C@@H](F)CN3)[nH]c(=O)c2s1` [Example 23, 2-[(2S,4R)-4-fluoropyrrolidin-2-yl]-6-(5-methyl-1H-pyrazol-4-yl)thieno[3,2-d]pyrimidin-4 (3H)-one dihydrochloride], for which the inhibition at 1 µM was found to be 98.4%.

With `Cc1[nH]ncc1-c1cc2nc(C3COCCN3)[nH]c(=O)c2s1` (stereo not shown) [Example 72, 6-(5-methyl-1H-pyrazol-4-yl)-2-(morpholin-3-yl)thieno[3,2-d]pyrimidin-4 (3H)-one dihydrochloride], the inhibition at 1 µM is 102%.

Take `Cc1[nH]ncc1-c1cc2nc(CN3CC=CCC3)[nH]c(=O)c2s1` [Example 75, 2-(3,6-dihydropyridin-1(2H)-ylmethyl)-6-(5-methyl-1H-pyrazol-4-yl)thieno[3,2-d]pyrimidin-4 (3H)-one]: the inhibition at 1 µM came out at 107%.

In the case of `Cc1[nH]ncc1-c1cc2nc([C@@H]3C[C@@H]4CCCC[C@@H]4N3)[nH]c(=O)c2s1` [Example 78, 6-(5-methyl-1H-pyrazol-4-yl)-2-[(2S,3aS,7aS)-octahydro-1H-indol-2-yl]thieno[3,2-d]pyrimidin-4 (3H)-one], the inhibition at 1 µM was found to be 86.2%.

Take `Cc1[nH]ncc1-c1cc2nc([C@H]3NC4CCC3CC4)[nH]c(=O)c2s1` [Example 108, 2-[(3S)-2-azabicyclo[2.2.2]oct-3-yl]-6-(5-methyl-1H-pyrazol-4-yl)thieno[3,2-d]pyrimidin-4 (3H)-one dihydrochloride]: the inhibition at 1 µM was 103%.

As for `Cc1[nH]ncc1-c1cc2nc([C@@H]3NC[C@@H]4C[C@@H]43)[nH]c(=O)c2s1` [Example 112, 2-[(1S,2R,5R)-3-azabicyclo[3.1.0]hex-2-yl]-6-(5-methyl-1H-pyrazol-4-yl)thieno[3,2-d]pyrimidin-4 (3H)-one dihydrochloride], the inhibition at 1 µM was 105%.

On to `Cc1[nH]ncc1-c1cc2nc([C@H]3NC[C@H]4C[C@H]43)[nH]c(=O)c2s1` [Example 113, 2-[(1R,2S,5S)-3-azabicyclo[3.1.0]hex-2-yl]-6-(5-methyl-1H-pyrazol-4-yl)thieno[3,2-d]pyrimidin-4 (3H)-one dihydrochloride], for which the inhibition at 1 µM was 124%.

Consider `Cc1[nH]ncc1-c1cc2nc(C3C[C@@H]4CCC[C@@H]4N3)[nH]c(=O)c2s1` (stereo partly drawn) [Example 123, 6-(5-methyl-1H-pyrazol-4-yl)-2-[(3aS,6aS)-octahydrocyclopenta[b]pyrrol-2-yl]thieno[3,2-d]pyrimidin-4 (3H)-one], for which the inhibition at 1 µM was determined as 97%.

`CNCc1nc2cc(-c3cn[nH]c3C)sc2c(=O)[nH]1` [Example 133, 2-[(methylamino)methyl]-6-(5-methyl-1H-pyrazol-4-yl)thieno[3,2-d]pyrimidin-4 (3H)-one dihydrochloride]: the inhibition at 1 µM was found to be 107%.

Turning to `Cc1[nH]ncc1-c1cc2nc(C(C)(C)N)[nH]c(=O)c2s1` [Example 135, 2-(1-amino-1-methylethyl)-6-(5-methyl-1H-pyrazol-4-yl)thieno[3,2-d]pyrimidin-4 (3H)-one dihydrochloride], the inhibition at 1 µM amounted to 111%.

`Cc1[nH]ncc1-c1cc2nc(C3CCCC3N)[nH]c(=O)c2s1` (stereo not shown) [Example 139, 2-(2-aminocyclopentyl)-6-(5-methyl-1H-pyrazol-4-yl)thieno[3,2-d]pyrimidin-4 (3H)-one dihydrochloride]: the inhibition at 1 µM is 106%.

Source of the values: patent US9388195B2, “Heterocyclic compound” (Takeda Pharmaceutical Company Limited, priority 2010, dated 2016).
